These results are taken from patent US10377791B2, “Therapeutically active estratrienthiazole derivatives as inhibitors of 17 B-hydroxysteroid dehydrogenase, type 1” (FORENDO PHARMA LTD, priority 2013, dated 2019).

Series [1] has as its target T1, recombinant human 17β-HSD1 (Homo sapiens, UniProt P14061).
T1 construct: made in house; host or cells: Sd9 (Sf9) insect cells, baculovirus (Bac to Bac Expression System)
T1 sequence (P14061 1-328): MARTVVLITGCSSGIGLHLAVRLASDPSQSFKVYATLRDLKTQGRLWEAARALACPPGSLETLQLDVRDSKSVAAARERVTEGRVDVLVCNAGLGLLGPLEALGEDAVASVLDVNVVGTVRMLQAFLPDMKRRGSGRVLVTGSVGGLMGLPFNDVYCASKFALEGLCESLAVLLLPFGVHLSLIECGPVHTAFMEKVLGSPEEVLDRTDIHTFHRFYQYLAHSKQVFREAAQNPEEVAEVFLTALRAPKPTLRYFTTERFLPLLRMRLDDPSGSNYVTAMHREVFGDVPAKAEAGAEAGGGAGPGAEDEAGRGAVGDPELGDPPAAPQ
Briefly: Inhibition of recombinant human 17β-HSD1. The class given is biochemical. To be noted: inhibitor at 1 μM; 30 nM estrone, 1 mM NADPH, 30 min at RT; read-out: 17β-HDS1 Inhibition % at 1 μM. The gist of the method: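 Microsomal enzyme from baculovirus-infected insect cells (1 μg/ml) incubated 30 min at RT in 20 mM KH2PO4 pH 7.4 with 30 nM ³H-estrone and 1 mM NADPH, inhibitor at 1 μM or 0.1 μM, 1% DMSO. TCA-stopped; estrone/estradiol separated by radio-HPLC; % inhibition = 100 − % conversion.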

The conditions of series [2]: human, tissue homogenate, 1 h.
Procedure: The in vitro metabolic stability of the compounds of the invention was determined for exemplified compounds using human liver microsome and homogenate incubations. The incubation time points used with or without appropriate cofactors were 0 min and 60 min. Samples were collected at both time points and substrates were detected using LC/PDA/TOF-MS.
In series [3] the target is T2, recombinant human 17β-HSD2 (Homo sapiens, UniProt P37059).
T2 construct: made in house; host or cells: Sd9 (Sf9) insect cells, baculovirus (Bac to Bac Expression System)
T2 sequence (P37059 1-387): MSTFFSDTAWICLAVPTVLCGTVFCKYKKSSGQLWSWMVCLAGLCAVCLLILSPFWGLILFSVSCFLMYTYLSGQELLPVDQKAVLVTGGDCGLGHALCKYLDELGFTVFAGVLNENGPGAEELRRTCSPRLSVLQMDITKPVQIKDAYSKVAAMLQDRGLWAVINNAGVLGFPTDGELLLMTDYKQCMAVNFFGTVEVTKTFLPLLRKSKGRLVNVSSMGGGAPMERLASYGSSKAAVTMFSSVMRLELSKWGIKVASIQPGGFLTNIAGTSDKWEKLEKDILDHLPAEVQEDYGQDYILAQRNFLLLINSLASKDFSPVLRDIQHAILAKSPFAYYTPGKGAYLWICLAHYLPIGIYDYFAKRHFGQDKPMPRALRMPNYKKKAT
Briefly: Inhibition of recombinant human 17β-HSD2. In kind it is biochemical. The following applies: inhibitor at 1 μM; 50 nM estradiol, 1 mM NADH, 30 min at RT; read-out: 17β-HSD2 Inhibition % at 1 μM. The method in brief:
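Membrane extract of baculovirus-expressed enzyme in Sf9 cells (4 μg/ml) incubated in 20 mM KH2PO4 pH 8.5 with 50 nM estradiol (³H-tracer) and 1 mM NADH, 30 min at RT, 1% DMSO, inhibitor at 1 μM or 0.1 μM. TCA-stopped; estradiol-to-estrone conversion by radio-HPLC; % inhibition = 100 − % conversion.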

In the case of `Cc1cnc(NC(=O)CC[C@@H]2CC(=O)[C@@]3(C)CCC4c5cc(Br)c(O)c(Br)c5CCC4C23)s1` (stereo partly drawn) [Compound 58, 3-((13S,15R)-2,4-dibromo-3-hydroxy-13-methyl-17-oxo-7,8,9,11,12,13,14,15,16,17-decahydro-6H-cyclopenta[a]phenanthren-15-yl)-N-(5-methylthiazol-2-yl)propanamide], the inhibition at 1 µM in series [1] was 95%; in series [3], 5%. Also, in series [2], the “In vitro metabolic stability, % remaining after 60 min” value came to 81%.
Turning to `Cc1cnc(NC(=O)CC[C@@H]2CC(=O)[C@@]3(C)CCC4c5ccccc5CCC4C23)s1` (stereo partly drawn) [Compound 83, 3-((13S,15R)-13-methyl-17-oxo-7,8,9,11,12,13,14,15,16,17-decahydro-6H-cyclopenta[a]phenanthren-15-yl)-N-(5-methylthiazol-2-yl)propanamide], the inhibition at 1 µM stood at 92% in series [1] and 1% in series [3]. In series [2], the “In vitro metabolic stability, % remaining after 60 min” value is given as 74%.

Usually inhibition stands for the drop in the measured response relative to a control, in per cent.
